Source: article PMC9001978, “Determining the Effects of Differential Expression of GRKs and β-arrestins on CLR-RAMP Agonist Bias” (Frontiers in Physiology, 2022)
Entries after “also recorded” stand apart in the source; their conditions may differ.

Tests used:
CLR-RAMP complexes [1] = test: Effect of barbadin on CLR-RAMP internalisation; type: cell-based; settings: any CLR-RAMP complex, at concentration that blocked GLP-1R internalisation
[2] = tested on: free fatty acid receptor 2 (FFAR2); settings: ref Wang et al., 2020; cited from earlier work
[3] = tested on: V2-vasopressin receptor (V2R); settings: ref Beautrait et al., 2017; cited from earlier work
Excerpt: (§1) The data we have obtained related to agonist-dependent internalisation of CLR in the presence of barbadin (Figure 3C) appear contradictory when compared to our results obtained with the HEK293∆β-arr1/2 cell lines (Figure 4A).

[4] = tested on: β2-adrenergic receptor (β2AR); settings: ref Beautrait et al., 2017; cited from earlier work
Excerpt: as §1

[5] = tested on: protease-activated receptor 2 (PAR2); settings: ref Jung et al., 2021; cited from earlier work
Excerpt: as §1

[6] = tested on: angiotensin-II type-1 receptor (AT1R); settings: ref Beautrait et al., 2017; cited from earlier work
Excerpt: as §1

CLR-RAMP complexes [7] = test: Effect of barbadin on cAMP accumulation at CLR-RAMP complexes; type: cell-based; settings: all agonists, three CLR-RAMP complexes
[8] = tested on: Glucagon-like peptide-1 receptor (GLP-1R); test: Effect on GLP-1R internalisation; type: cell-based; settings: 100 μM, 30 min preincubation
CLR-RAMP complexes [9] = test: Effect of barbadin on cAMP accumulation in β-arrestin KO HEK293 cells; type: cell-based; settings: 100 μM barbadin
β-arrestin-AP2 complex = settings: ref Beautrait et al., 2017; cited from earlier work
Excerpt: The canonical role of β-arrestins is the desensitisation of G protein signalling; steric hindrance to disrupt G protein-receptor association and acting as scaffolds for proteins which decrease the G protein activity and output e.g. phosphodiesterases (PDEs) ([Perry et al., 2002]). Additionally, β-arrestins mediate agonist dependent internalisation at many GPCRs, through the recruitment of β2-adaptin (AP2) and subsequently clathrin, to mediate endocytosis. […] Barbadin is an inhibitor of the β-arresti ...

5-HT2CR = settings: ref He et al., 2021; cited from earlier work
CLR-RAMP3 [10] = molecular target: T1, CLR-RAMP3 (Homo sapiens, UniProt O60896+Q16602); parameters: method as in Clark et al., 2021; settings: AM receptor 2 (AM2R), ref Clark et al., 2021; cited from earlier work
T1 sequence (Q16602 23-461): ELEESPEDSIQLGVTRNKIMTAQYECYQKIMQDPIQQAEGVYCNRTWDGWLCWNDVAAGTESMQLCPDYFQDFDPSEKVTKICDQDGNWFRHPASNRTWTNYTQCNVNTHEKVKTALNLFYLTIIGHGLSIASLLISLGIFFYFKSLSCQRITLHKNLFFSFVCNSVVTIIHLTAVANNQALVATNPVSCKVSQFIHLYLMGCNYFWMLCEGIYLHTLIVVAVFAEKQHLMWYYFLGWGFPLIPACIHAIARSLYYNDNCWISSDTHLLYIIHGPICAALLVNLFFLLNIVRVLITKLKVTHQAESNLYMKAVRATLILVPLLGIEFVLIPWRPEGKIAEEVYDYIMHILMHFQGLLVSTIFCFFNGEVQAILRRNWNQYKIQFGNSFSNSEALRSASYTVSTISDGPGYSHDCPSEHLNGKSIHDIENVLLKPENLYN
T1 sequence (O60896 24-148): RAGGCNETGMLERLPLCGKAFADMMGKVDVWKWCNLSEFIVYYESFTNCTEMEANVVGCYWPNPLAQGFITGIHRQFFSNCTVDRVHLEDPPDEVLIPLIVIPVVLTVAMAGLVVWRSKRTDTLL

CLR-RAMP2 [11] = molecular target: T2, CLR-RAMP2 (Homo sapiens, UniProt O60895+Q16602); test: β-arrestin1 recruitment to CLR-RAMP2 (BRET); settings: HEK293T, n = 3
T2 sequence (Q16602 23-461): as the sequence (Q16602 23-461) above
T2 sequence (O60895 43-175): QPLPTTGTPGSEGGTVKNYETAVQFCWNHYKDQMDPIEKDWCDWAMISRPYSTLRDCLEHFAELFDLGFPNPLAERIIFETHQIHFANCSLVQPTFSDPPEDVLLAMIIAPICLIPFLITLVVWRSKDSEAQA

CLR-RAMP1 [12] = molecular target: T3, CLR-RAMP1 (Homo sapiens, UniProt O60894+Q16602); test: Internalisation of CLR-RAMP1 (BRET CLR-Nluc / RIT-Venus); settings: HEK293T, CLR-Nluc + FLAG-RAMP1, RIT-Venus BRET; mean ± SEM, n = 3-4
T3 sequence (Q16602 23-461): as the sequence (Q16602 23-461) above
T3 sequence (O60894 27-148): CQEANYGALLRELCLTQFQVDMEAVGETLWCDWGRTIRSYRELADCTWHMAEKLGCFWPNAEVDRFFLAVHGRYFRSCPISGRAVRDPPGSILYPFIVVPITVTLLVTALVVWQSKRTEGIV

CLR-RAMP2 [13] = molecular target: T2, CLR-RAMP2; test: cAMP accumulation at CLR-RAMP2
CLR-RAMP2 [14] = molecular target: T2, CLR-RAMP2; test: Internalisation of CLR-RAMP2 (BRET CLR-Nluc / RIT-Venus); settings: HEK293T, CLR-Nluc + FLAG-RAMP2, RIT-Venus BRET; mean ± SEM, n = 3-4
CLR-RAMP1 [15] = molecular target: T3, CLR-RAMP1; test: β-arrestin1 recruitment to CLR-RAMP1 (BRET); settings: HEK293T, n = 3
CLR-RAMP3 [16] = molecular target: T1, CLR-RAMP3; test: Internalisation of CLR-RAMP3 (BRET CLR-Nluc / RIT-Venus); settings: HEK293T, CLR-Nluc + FLAG-RAMP3, RIT-Venus BRET; mean ± SEM, n = 4-5
CLR-RAMP1 [17] = molecular target: T3, CLR-RAMP1; test: β-arrestin2 recruitment to CLR-RAMP1 (BRET); settings: HEK293T, n = 3
CLR-RAMP2 [18] = molecular target: T2, CLR-RAMP2; test: β-arrestin2 recruitment to CLR-RAMP2 (BRET); settings: HEK293T, n = 3

Nn1cnc2scc(-c3ccc(Cc4ccccc4)cc3)c2c1=O [Barbadin]
Effect of barbadin on agonist-mediated CLR internalisation (CLR-RAMP complexes [1]): did not block agonist-mediated CLR internalisation; also recorded: no effect on receptor internalisation | Block of receptor internalisation [2]: successfully block | Block of receptor internalisation [3]: successfully block | Block of receptor internalisation [4]: successfully block | Block of receptor internalisation [5]: successfully block | Block of receptor internalisation [6]: successfully block | Effect of barbadin on cAMP accumulation (CLR-RAMP complexes [7]): reduce cAMP accumulation | Effect of barbadin on cAMP accumulation (CLR-RAMP complexes [7]; listed as barbadin): significantly reduce cAMP accumulation; also recorded: significantly attenuated cAMP signalling | Effect on GLP-1R internalisation [8]: successfully block | Effect on GLP-1R internalisation ([8]; listed as barbadin): inhibit GLP-1R internalisation | Effect of barbadin on cAMP accumulation (CLR-RAMP complexes [9]): agonist dependent reduction in cAMP accumulation | Effect on β-arrestin recruitment (β-arrestin-AP2 complex): without inhibiting β-arrestin recruitment | Inhibition of β-arrestin-AP2 interaction (β-arrestin-AP2 complex): inhibitor of the β-arrestin-AP2 interacting domain | Block of receptor internalisation (5-HT2CR): successfully block

CSCC[C@H](NC(=O)[C@H](CC(C)C)NC(=O)[C@H](CCC(N)=O)NC(=O)[C@H](Cc1c[nH]c2ccccc12)NC(=O)[C@H](CC(C)C)NC(=O)[C@H](CCCNC(=N)N)NC(=O)[C@H](Cc1c[nH]cn1)NC(=O)[C@H](CO)NC(=O)[C@H](CC(C)C)NC(=O)[C@H](CC(N)=O)NC(=O)[C@H](CCC(N)=O)NC(=O)[C@@H](NC(=O)[C@H](CCC(N)=O)NC(=O)[C@@H]1CSSC[C@H](NC(=O)CNC(=O)[C@@H](NC(=O)[C@H](CCCNC(=N)N)NC(=O)[C@H](CC(C)C)NC(=O)[C@H](CC(C)C)NC(=O)[C@H](CCC(N)=O)NC(=O)[C@H](C)NC(=O)[C@H](CCC(N)=O)NC(=O)[C@@H](N)[C@@H](C)O)C(C)C)C(=O)N[C@@H](C(C)C)C(=O)N[C@@H](CC(C)C)C(=O)NCC(=O)N[C@@H]([C@@H](C)O)C(=O)N1)C(C)C)C(=O)NCC(=O)N1CCC[C@H]1C(=O)N[C@@H](C)C(=O)NCC(=O)N[C@@H](CCCNC(=N)N)C(=O)N[C@@H](CCC(N)=O)C(=O)N[C@@H](CC(=O)O)C(=O)N[C@@H](CO)C(=O)N[C@@H](C)C(=O)N1CCC[C@H]1C(=O)N[C@H](C(=O)N[C@@H](CC(=O)O)C(=O)N1CCC[C@H]1C(=O)N[C@@H](CO)C(=O)N[C@@H](CO)C(=O)N1CCC[C@H]1C(=O)N[C@@H](Cc1c[nH]cn1)C(=O)N[C@@H](CO)C(=O)N[C@@H](Cc1ccc(O)cc1)C(N)=O)C(C)C [AM2, adrenomedullin 2]
Rank order of potency (CLR-RAMP3 [10]): equipotent agonists | Emax, β-arrestin1 recruitment (CLR-RAMP2 [11]; CLR-Nluc + FLAG-RAMP2 + β-arrestin1-YFP, BRET, mean ± SEM): 3 ± 1 BRET units (x10^-3) | Emax, β-arrestin1 recruitment (CLR-RAMP2 [11]; GRK2 overexpressed): 7 ± 1 BRET units (x10^-3) | Emax, β-arrestin1 recruitment (CLR-RAMP2 [11]; GRK3 overexpressed): 11 ± 1 BRET units (x10^-3) | Emax, β-arrestin1 recruitment (CLR-RAMP2 [11]; GRK4 overexpressed): 4 ± 1 BRET units (x10^-3) | Emax, β-arrestin1 recruitment (CLR-RAMP2 [11]; GRK series: Vector): 3 ± 1 BRET units (x10^-3) | Emax, internalisation (CLR-RAMP1 [12]): ~-63 ± 41 BRET units (x10^-3) | Effect of barbadin pretreatment on cAMP accumulation (CLR-RAMP2 [13]; AM2 at CLR-RAMP2): far smaller | Change in cAMP potency on β-arrestin2 overexpression (CLR-RAMP2 [13]; CLR-RAMP2, HEK293T, p = 0.02): significant decrease in potency | Emax, internalisation (CLR-RAMP2 [14]): ~-20 ± 18 BRET units (x10^-3) | Emax, β-arrestin1 recruitment (CLR-RAMP1 [15]; CLR-Nluc + FLAG-RAMP1 + β-arrestin1-YFP, BRET, mean ± SEM): ~63 ± 27 BRET units (x10^-3) | Emax, β-arrestin1 recruitment (CLR-RAMP1 [15]; GRK2 overexpressed): ~46 ± 5 BRET units (x10^-3) | Emax, β-arrestin1 recruitment (CLR-RAMP1 [15]; GRK3 overexpressed): ~32 ± 2 BRET units (x10^-3) | Emax, β-arrestin1 recruitment (CLR-RAMP1 [15]; GRK4 overexpressed): ~28 ± 7 BRET units (x10^-3) | Emax, β-arrestin1 recruitment (CLR-RAMP1 [15]; GRK6 overexpressed): ~10 ± 6 BRET units (x10^-3) | Emax, β-arrestin1 recruitment (CLR-RAMP1 [15]; GRK series: Vector): ~63 ± 26 BRET units (x10^-3) | Emax, internalisation (CLR-RAMP3 [16]): ~-8 ± 3 BRET units (x10^-3) | Emax, β-arrestin2 recruitment (CLR-RAMP1 [17]; CLR-Nluc + FLAG-RAMP1 + β-arrestin2-YFP, BRET, mean ± SEM): ~98 ± 21 BRET units (x10^-3) | Emax, β-arrestin2 recruitment (CLR-RAMP1 [17]; GRK2 overexpressed): ~54 ± 47 BRET units (x10^-3) | Emax, β-arrestin2 recruitment (CLR-RAMP1 [17]; GRK3 overexpressed): ~49 ± 8 BRET units (x10^-3) | Emax, β-arrestin2 recruitment (CLR-RAMP1 [17]; GRK4 overexpressed): ~45 ± 4 BRET units (x10^-3) | Emax, β-arrestin2 recruitment (CLR-RAMP1 [17]; GRK series: Vector): ~98 ± 21 BRET units (x10^-3) | Emax, β-arrestin2 recruitment (CLR-RAMP2 [18]; CLR-Nluc + FLAG-RAMP2 + β-arrestin2-YFP, BRET, mean ± SEM): 9 ± 1 BRET units (x10^-3) | Emax, β-arrestin2 recruitment (CLR-RAMP2 [18]; GRK4 overexpressed): 10 ± 2 BRET units (x10^-3) | Emax, β-arrestin2 recruitment (CLR-RAMP2 [18]; GRK series: Vector): 9 ± 1 BRET units (x10^-3)
